Experimental data from patent US11459337B2, “Isothiazolo[5,4-D]pyrimidine compound as IRAK4 inhibitor” (priority 2018, dated 2022).
Read-outs that look alike come from different tables or passages of the source.

Tests used:
human IRAK4 = human IRAK4 (Homo sapiens (Human), UniProt Q9NWZ3); experiment: 33P-labeled kinase activity assay (Reaction Biology Corp), in vitro enzymatic activity; assay type: biochemical; conditions: 20 μM ATP, 3 nM kinase, MBP substrate
Experimental: The inhibitory activity of the test compounds against human IRAK4 was evaluated by measuring IC50 values in a ^33P-labeled kinase activity assay (Reaction Biology Corp). Buffer conditions: 20 mM Hepes (pH 7.5), 10 mM MgCl2, 1 mM EGTA, 0.02% Brij35, 0.02 mg/mL BSA, 0.1 mM Na3VO4, 2 mM DTT, 1% DMSO. Procedures: The test compound was dissolved in DMSO at room temperature to prepare a 10 mM solution for later use. The substrate was dissolved in fresh buffer, to which the kinase was added and mixed well. The DMSO solution containing the test compound was added to the above mixed reaction system by an acoustic technique (Echo 550). The concentrations of the compounds in reaction system were 10 μM, 3.33 μM, 1.11 μM, 0.370 μM, 0.123 μM, 41.2 nM, 13.7 nM, 4.57 nM, 1.52 nM, and 0.508 nM. After 15 minutes of incubation, the reaction was started by adding ^33P-ATP (activity: 0.01 μCi/μL; the corresponding concentration is listed in Table 1). Supplier's catalog number, lot number and concentration information in the reaction system for IRAK4 and its substrate are listed in Table 1. After 120 minutes of reaction at room temperature, the resulting solution was loaded on P81 ion exchange chromatography paper sheet (Whatman #3698-915). After repeated washing with 0.75% phosphoric acid solution, the radioactivity of the phosphorylated substrate residue on the paper sheet was measured. The kinase activity data are shown as a comparison of the kinase activity of the test compound and the kinase activity of the blank (DMSO only) and a curve was fitted using Prism4 software (GraphPad) to give IC50 values, with the experimental results shown in Table 2. [table]

THP-1 cells = experiment: TNF-α ELISA assay in LPS-stimulated THP-1 cells; assay type: cell-based, human; conditions: TNF-α in supernatant, 150 ng/mL LPS
Experimental: TNF-α ELISA Assay in THP-1 Cells THP-1 human acute unicellular leukemia cells were purchased from ATCC (Cat #TIB-202) and incubated in a 37° C., 5% CO2 incubator. The medium was RPMI1640 (Gibco, Cat #22400-105), the supplementary was 10% FBS (Gibco, Cat #10091148); 1% PenStrep (Gibco, Cat #15140); 0.05 mM 2-mercaptoethanol (Sigma, Cat #M6250). TNF-α content in the culture supernatant was measured by a TNF-α Elisa kit. TNF-α was produced by stimulation of THP-1 cells with 150 ng/mL LPS (Sigma, Cat #L6529). Normal THP-1 cells in logarithmic phase were inoculated in 96-well plates (Corning #3599) at a certain concentration (1×10^5/100 μL) and then incubated in an incubator. After two hours, 16.7 μL of test compound of different concentrations (8×final concentration) was added and the mixture was incubated. After one hour, 16.7 μL of 1200 ng/mL LPS was added and the mixture was incubated. After 18 hours, the culture was centrifuged and the supernatant was collected. The TNF-α content was measured by a TNF-α Elisa kit. Finally, the OD signals (OD450-OD570) were read on an envision plate reader. The OD450-OD570 signals were converted to percent inhibition. Inhibition %=(ZPE−sample)/(ZPE−HPE)×100. “HPE” represents the OD450-OD570 signal value of the control without LPS-stimulated cells, and “ZPE” represents the OD450-OD570 signal value of the control with LPS-stimulated cells. IC50 values for compounds were calculated by XLFit in the Excel. Y=Bottom+(Top−Bottom)/(1+(IC50/X)^HillSlope). Equation: […]

[1] = Pharmacokinetic study of oral and intravenous test compounds in SD rats; assay type: in vivo; conditions: rat, plasma, SD male rats; for AUC(0-t): read-out: Area under plasma concentration-time curve AUC0-last
Experimental: Pharmacokinetic Study of Oral and Intravenous Test Compounds in SD Rats The test compound was mixed with a solution containing 10% of methyl pyrrolidone, 10% of polyethylene glycol stearate and 80% of water. The mixture was vortexed and sonicated to prepare a 1.5 mg/mL clarified solution, which was then filtered through a microporous membrane for later use. SD male rats aged 7 to 10 weeks were selected and administered intravenously with a dose of the candidate compound at 3 mg/kg. The test compound was mixed with 0.5% aqueous methylcellulose solution. The mixture was vortexed and sonicated to prepare a 2 mg/mL suspension for later use. SD male rats aged 7 to 10 weeks were selected and orally administered with a dose of the candidate compound at 10 mg/kg. Whole blood was collected at certain time points, and plasma was separated. The drug concentration was measured by LC-MS/MS, and pharmacokinetic parameters were calculated using Phoenix WinNonlin software (Pharsight, USA).

human IRAK4, sequence (Q9NWZ3 whole entry): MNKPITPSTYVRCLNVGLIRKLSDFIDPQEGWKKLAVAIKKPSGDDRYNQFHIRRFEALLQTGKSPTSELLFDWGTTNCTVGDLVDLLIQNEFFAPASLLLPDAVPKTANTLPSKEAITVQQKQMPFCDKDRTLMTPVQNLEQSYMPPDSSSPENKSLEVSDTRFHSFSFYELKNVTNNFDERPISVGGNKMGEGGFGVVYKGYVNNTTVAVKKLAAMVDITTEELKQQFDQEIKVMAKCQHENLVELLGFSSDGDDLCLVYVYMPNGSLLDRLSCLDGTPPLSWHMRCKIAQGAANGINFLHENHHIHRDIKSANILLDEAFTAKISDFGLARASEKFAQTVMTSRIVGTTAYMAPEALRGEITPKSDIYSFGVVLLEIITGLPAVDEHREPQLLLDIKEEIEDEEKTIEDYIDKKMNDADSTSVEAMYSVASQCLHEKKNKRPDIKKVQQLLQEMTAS

Row | Compound | IC50 (human IRAK4) | IC50 (THP-1 cells; Homo sapiens, THP-1, 18 h) | further results
1 | Cc1nsc2nc(Nc3cnn(C4CCOC4)c3)nc(N[C@H]3CC[C@H](N4CCOCC4)CC3)c12 (stereo partly shown) [WX008] | 27.2 nM |  | IC50 (THP-1 cells; 18 hours): 279 nM
2 | Cc1nsc2nc(Nc3cnn(C[C@@H]4COCCO4)c3)nc(N[C@H]3CC[C@H](N4CCOCC4)CC3)c12 [WX015] | 20.5 nM | 952 nM | 
3 | Cc1nsc2nc(Nc3cnn(C4CCOCC4)c3)nc(N[C@H]3CC[C@H](N4CCNC(C)C4)CC3)c12 (stereo partly shown) [WX049] | 11.2 nM | 516 nM | 
4 | Cc1nsc2nc(Nc3cnn([C@H]4CCOC4)c3)nc(N[C@H]3CC[C@H](N4CCOCC4)CC3)c12 [WX006] | 9.9 nM | 486 nM | 
5 | Cc1nsc2nc(Nc3cnn(C4CCOCC4)c3)nc(N[C@H]3CC[C@H](N4CCN(C5CC5)CC4)CC3)c12 [WX031] | 2.4 nM | 317 nM | 
6 | CCOC(=O)N1CCN([C@H]2CC[C@H](Nc3nc(Nc4cnn(C5CCOCC5)c4)nc4snc(C)c34)CC2)CC1 [WX028] | 1.6 nM | 234 nM | 
7 | CC(=O)N1C2CC1CN([C@H]1CC[C@H](Nc3nc(Nc4cnn(C5CCOCC5)c4)nc4snc(C)c34)CC1)C2 [WX043] | 12.2 nM |  | 
8 | Cc1nsc2nc(Nc3cnn(C4CCOCC4)c3)nc(N[C@H]3CC[C@H](N4CCNC(=O)C4)CC3)c12 [WX048] | 460 nM |  | 
9 | CC(=O)N1CCCN(C2CCC(Nc3nc(Nc4cnn(C5CCOCC5)c4)nc4snc(C)c34)CC2)CC1 (stereo not shown) [WX038] | 1.3 nM | 216 nM | 
10 | COC(=O)N1CCN([C@H]2CC[C@H](Nc3nc(Nc4cnn(C5CCOC5)c4)nc4snc(C)c34)CC2)CC1 (stereo partly shown) [WX032] | 15.2 nM |  | 
11 | COC(=O)N1CCN([C@H]2CC[C@H](Nc3nc(Nc4cnn([C@@H]5CCOC5)c4)nc4snc(C)c34)CC2)CC1 [WX033] | 12.8 nM |  | 
12 | Cc1nsc2nc(Nc3cnn(C[C@H]4COCCO4)c3)nc(N[C@H]3CC[C@H](N4CCOCC4)CC3)c12 [WX014] | 30.3 nM | 663 nM | 
13 | Cc1nsc2nc(Nc3cnn(C4CCOCC4)c3)nc(N[C@H]3CC[C@H](N4CC5CC(C4)N5)CC3)c12 [WX040] | 30 nM |  | 
14 | Cc1nsc2nc(Nc3cnn(C4CCOCC4)c3)nc(N[C@H]3CC[C@H](N4CCC(C(=O)O)CC4)CC3)c12 [WX057] | 5 nM |  | 
15 | Cc1nsc2nc(Nc3cnn(C4CCOCC4)c3)nc(N[C@H]3CC[C@H](N4CCNC5(CC5)C4)CC3)c12 [WX050] | 13.4 nM | 689 nM | 
16 | Cc1nsc2nc(Nc3cnn(C4CCOCC4)c3)nc(O[C@H]3CC[C@H](N4CCOCC4)CC3)c12 [WX002] | 89.5 nM |  | 
17 | Cc1nsc2nc(Nc3cnn(C4CCOCC4)c3)nc(N[C@H]3CC[C@H](N4CCC(O)CC4)CC3)c12 [WX052] | 1.8 nM |  | 
18 | Cc1nsc2nc(Nc3cnn(C4CCOCC4)c3)nc(N[C@H]3CC[C@H](N4C[C@H]5C[C@@H]4CN5C)CC3)c12 [WX045] | 278 nM |  | 
19 | Cc1nsc2nc(Nc3cnn(C4CCOCC4)c3)nc(N[C@H]3CC[C@H](N4CCN(C)CC4)CC3)c12 [WX030] | 7.5 nM | 308 nM | 

Row | Compound | IC50 (human IRAK4) | IC50 (THP-1 cells; Homo sapiens, THP-1, 18 h) | further results
20 | CC(=O)N1CCN([C@H]2CC[C@H](Nc3nc(Nc4cnn(C5CCOCC5)c4)nc4snc(C)c34)CC2)CC1 [WX027] | 3.3 nM | 639 nM | 
21 | N#CCc1nsc2nc(Nc3cnn(C4CCOCC4)c3)nc(N[C@H]3CC[C@H](N4CCOCC4)CC3)c12 [WX055] | 11.7 nM | 165 nM | 
22 | COC(=O)N1CCCN(C2CCC(Nc3nc(Nc4cnn(C5CCOCC5)c4)nc4snc(C)c34)CC2)CC1 (stereo not shown) [WX039] | 7.9 nM | 139 nM | 
23 | Cc1nsc2nc(Nc3cnn(C4CCOCC4)c3)nc(N[C@H]3CC[C@H](N4CCNCC4C)CC3)c12 (stereo partly shown) [WX051] | 13.7 nM |  | 
24 | NC(=O)C[C@H]1CCc2sc3ncnc(O[C@H]4CC[C@H](N5CCOCC5)CC4)c3c21 [WXR2, ND-2110, reference compound] |  |  | Vd ([1]; Intravenous, 3 mg/kg, read-out: Apparent volume of distribution Vdss): 1.6 L/kg; AUC(0-t) ([1]; Intravenous, 3 mg/kg): 3.68 µM·h; clearance ([1]; Intravenous, 3 mg/kg, read-out: Clearance CL): 33.2 mL/min/kg; half-life ([1]; Intravenous, 3 mg/kg, read-out: Half life T1/2 (converted)): 78 min; AUC(0-t) ([1]; Oral, 10 mg/kg): 2.13 µM·h; bioavailability ([1]; Oral, 10 mg/kg, read-out: Bioavailability F): 18%; Cmax ([1]; Oral, 10 mg/kg, read-out: Peak concentration Cmax): 893 nM; Tmax ([1]; Oral, 10 mg/kg, read-out: Time to peak Tmax): 36 min
25 | COC(=O)N1CCN([C@H]2CC[C@H](Nc3nc(Nc4cnn(C5CCC(F)(F)CC5)c4)nc4snc(C)c34)CC2)CC1 [WX059] | 1.1 nM |  | 
26 | Cc1nsc2nc(Nc3cnn(C4CCOCC4)c3)nc(N[C@H]3CC[C@H](N4CCC(N(C)C)CC4)CC3)c12 [WX058] | 2.1 nM |  | 
27 | COC(=O)N1CCN([C@H]2CC[C@H](Nc3nc(Nc4cnn(C)c4)nc4snc(C)c34)CC2)CC1 [WX035] | 10.7 nM |  | 
28 | Cc1nsc2nc(Nc3cnn(CCO)c3)nc(N[C@H]3CC[C@H](N4CCOCC4)CC3)c12 [WX010] | 45.9 nM |  | 
29 | Cc1nsc2nc(Nc3cnn(C4CCOCC4)c3)nc(N(C)[C@H]3CC[C@H](N4CCOCC4)CC3)c12 [WX013] | 60.1 nM |  | 
30 | Cn1cc(Nc2nc(N[C@H]3CC[C@H](N4CCOCC4)CC3)c3c(C4CCOCC4)nsc3n2)cn1 [WX005] | 8.7 nM |  | 
31 | Cc1nsc2nc(Nc3cnn(CC(=O)O)c3)nc(N[C@H]3CC[C@H](N4CCOCC4)CC3)c12 [WX011] | 357 nM |  | 
32 | Cc1nsc2nc(Nc3cnn(C4CCOCC4)c3)nc(N[C@H]3CC[C@H](N4CC(O)C4)CC3)c12 [WX060] | 7.3 nM |  | 
33 | Cc1nsc2nc(Nc3cnn(C4CCOCC4)c3)nc(N[C@H]3CC[C@H](N4CCN(C(C)C)CC4)CC3)c12 [WX029] | 3.8 nM |  | 
34 | O=C(O)Cc1nsc2nc(Nc3cnn(C4CCOCC4)c3)nc(N[C@H]3CC[C@H](N4CCOCC4)CC3)c12 [WX056] | 17 nM |  | 
35 | COC(=O)N1CCN([C@H]2CC[C@H](Nc3nc(Nc4cnn([C@H]5CCOC5)c4)nc4snc(C)c34)CC2)CC1 [WX034] | 12.8 nM |  | 
36 | Cc1nsc2nc(Nc3cnn(C4CCOCC4)c3)nc(N[C@H]3CC[C@H](N4CCOCC4=O)CC3)c12 [WX054] | 363 nM |  | 
37 | Cc1nsc2nc(Nc3cnn(C4CCOCC4)c3)nc(N[C@H]3CC[C@H](N4CCNCC4)CC3)c12 [WX025] | 23.6 nM |  | 
38 | Cc1nsc2nc(Nc3cnn(C4CCOCC4)c3)nc(N[C@H]3CC[C@H](N4CC5CC(C4)N5C)CC3)c12 [WX041] | 21.4 nM |  | 
